Measurements as given in ChEMBL document CHEMBL1143099, “Synthesis and SAR of potent and orally bioavailable tert-butylpyrrolidine archetype derived melanocortin subtype-4 receptor modulators” (Bioorg Med Chem Lett, 2008).
pEC50, pIC50: −log10 of the molar value.

What was measured:
Melanocortin receptor 3 [1] = target: T1, Melanocortin receptor 3 (Homo sapiens, UniProt P41968); experiment: Agonist activity at human MC3R expressed in CHO cells assessed as cAMP release at 10 uM relative to alpha-MSH; type: functional, cell-based
T1 sequence (P41968 whole entry): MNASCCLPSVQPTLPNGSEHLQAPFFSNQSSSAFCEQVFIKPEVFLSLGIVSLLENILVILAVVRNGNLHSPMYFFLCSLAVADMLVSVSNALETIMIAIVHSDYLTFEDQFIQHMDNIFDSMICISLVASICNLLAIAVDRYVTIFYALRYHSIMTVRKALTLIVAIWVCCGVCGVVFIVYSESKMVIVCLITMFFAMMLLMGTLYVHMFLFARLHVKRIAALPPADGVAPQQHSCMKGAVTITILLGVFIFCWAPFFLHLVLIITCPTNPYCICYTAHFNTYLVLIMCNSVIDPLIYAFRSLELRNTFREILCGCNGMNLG

[2] = target: Melanocortin receptor 4 (Rattus norvegicus) (UniProt P70596); experiment: Agonist activity at rat MC4R expressed in CHO cells assessed as cAMP release at 10 uM relative to alpha-MSH; type: functional, cell-based
Melanocortin receptor 4 (Rattus norvegicus), sequence (P70596 whole entry): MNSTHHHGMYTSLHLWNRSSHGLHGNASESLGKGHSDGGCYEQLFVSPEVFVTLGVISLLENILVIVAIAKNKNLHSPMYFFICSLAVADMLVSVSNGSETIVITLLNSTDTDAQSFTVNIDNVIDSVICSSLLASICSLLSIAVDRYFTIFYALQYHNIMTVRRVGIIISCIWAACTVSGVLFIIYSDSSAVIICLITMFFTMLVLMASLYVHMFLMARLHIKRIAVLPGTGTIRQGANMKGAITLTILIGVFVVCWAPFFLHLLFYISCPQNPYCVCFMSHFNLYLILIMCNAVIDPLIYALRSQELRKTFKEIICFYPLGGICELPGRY

Melanocortin receptor 5 [3] = target: T2, Melanocortin receptor 5 (Homo sapiens, UniProt P33032); experiment: Agonist activity at human MC5R expressed in CHO cells assesses as cAMP release; type: functional, cell-based
T2 sequence (P33032 whole entry): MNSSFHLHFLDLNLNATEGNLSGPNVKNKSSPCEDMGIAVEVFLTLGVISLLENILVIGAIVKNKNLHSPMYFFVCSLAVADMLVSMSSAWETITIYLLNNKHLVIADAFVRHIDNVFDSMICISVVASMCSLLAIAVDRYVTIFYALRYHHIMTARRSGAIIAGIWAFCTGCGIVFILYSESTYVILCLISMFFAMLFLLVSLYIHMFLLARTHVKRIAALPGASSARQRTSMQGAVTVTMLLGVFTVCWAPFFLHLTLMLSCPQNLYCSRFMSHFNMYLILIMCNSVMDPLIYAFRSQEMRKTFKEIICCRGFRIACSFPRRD

[4] = Oral bioavailability in Sprague-Dawley rat at 4 mg/kg; type: ADME, organism-based; settings: in vivo
[5] = Binding affinity to human MC1bR
Melanocortin receptor 4 [6] = target: T3, Melanocortin receptor 4 (Rattus norvegicus, UniProt P70596); experiment: Binding affinity to rat MC4R
T3 sequence (P70596 whole entry): as the sequence (P70596 whole entry) above

Melanocortin receptor 5 [7] = target: T2, Melanocortin receptor 5; experiment: Binding affinity to human MC5R
[8] = Plasma clearance in rat at 4 mg/kg, po; type: ADME, organism-based; parameters: dose 4 mg/kg, route oral
[9] = Agonist activity at human MC1bR expressed in CHO cells assessed as cAMP release at 10 uM relative to alpha-MSH; type: functional
Melanocortin receptor 5 [10] = target: T2, Melanocortin receptor 5; experiment: Agonist activity at human MC5R expressed in CHO cells assessed as cAMP release at 10 uM relative to alpha-MSH; type: functional, cell-based
Melanocortin receptor 3 [11] = target: T1, Melanocortin receptor 3; experiment: Binding affinity to human MC3R
Homo sapiens [12] = species on record: Homo sapiens; experiment: Selectivity for human MC4R over human MC3R
Melanocortin receptor 4 [13] = target: T4, Melanocortin receptor 4 (Homo sapiens, UniProt P32245); experiment: Agonist activity at human MC4R expressed in CHO cells assessed as cAMP release at 10 uM relative to alpha-MSH; type: functional, cell-based
T4 sequence (P32245 whole entry): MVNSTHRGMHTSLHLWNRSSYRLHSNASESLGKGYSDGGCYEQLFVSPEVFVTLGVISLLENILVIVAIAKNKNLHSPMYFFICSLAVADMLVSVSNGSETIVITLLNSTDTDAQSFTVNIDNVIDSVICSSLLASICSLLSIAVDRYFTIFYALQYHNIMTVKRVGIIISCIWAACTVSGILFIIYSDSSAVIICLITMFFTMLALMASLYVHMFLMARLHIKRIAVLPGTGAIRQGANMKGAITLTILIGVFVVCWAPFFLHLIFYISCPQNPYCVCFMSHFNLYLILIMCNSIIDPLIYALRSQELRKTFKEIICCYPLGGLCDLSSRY

Homo sapiens [14] = species on record: Homo sapiens; experiment: Selectivity for human MC4R over human MC1bR
Melanocortin receptor 4 [15] = target: T4, Melanocortin receptor 4; experiment: Displacement of [125I]NDP-alpha-MSH from human MC4R expressed in CHO cells; type: cell-based
Melanocortin receptor 4 [16] = target: T4, Melanocortin receptor 4; experiment: Agonist activity at human MC4R expressed in CHO cells assessed as cAMP release relative to alpha-MSH; type: functional, cell-based
Melanocortin receptor 4 [17] = target: T4, Melanocortin receptor 4; experiment: Agonist activity at human MC4R expressed in CHO cells assessed as cAMP release; type: functional, cell-based
Melanocortin receptor 3 [18] = target: T1, Melanocortin receptor 3; experiment: Agonist activity at human MC3R expressed in CHO cells assessed as cAMP release; type: functional, cell-based
Melanocortin receptor 4 [19] = target: T3, Melanocortin receptor 4; experiment: Agonist activity at rat MC4R expressed in CHO cells assessed as cAMP release; type: functional, cell-based
[20] = Agonist activity at human MC1bR expressed in CHO cells assessed as cAMP release; type: functional, cell-based

Structure (SMILES) | Activity (Melanocortin receptor 3 [1]) [%] | pEC50 (Melanocortin receptor 5 [3]) | bioavailability [4] [%] | pIC50 [5] | pIC50 (Melanocortin receptor 5 [7]) | CL/F [8] [mL/min/kg] | Activity [9] [%] | Activity (Melanocortin receptor 5 [10]) [%] | pIC50 (Melanocortin receptor 3 [11]) | pIC50 (Melanocortin receptor 4 [15]) | %max (Melanocortin receptor 4 [16]) [%] | pEC50 (Melanocortin receptor 4 [17]) | other results
CC[C@H](NC(C)=O)c1cc(Cl)ccc1C1CCN(C(=O)[C@H]2CN(C(C)(C)C)C[C@@H]2c2ccc(Cl)cc2Cl)CC1 | 5 | 5.80 | 30.3 | 4.70 | 6.61 | 11.4 | 3 | 10 | 5.37 | 8.48 |  |  | Activity [2]: 6%; pIC50 (Melanocortin receptor 4 [6]): 9.30; Ratio IC50 (Homo sapiens [12]): > 1000; Activity (Melanocortin receptor 4 [13]): 1%; Ratio IC50 (Homo sapiens [14]): > 6000
CC[C@H](NC(C)=O)c1cc(Cl)ccc1C1CCN(C(=O)[C@H]2CN(C(C)(C)C)C[C@@H]2c2ccc(OC)cc2F)CC1 |  |  |  |  |  |  |  |  |  | 7.43 | 34 | 6.61 | 
CC[C@H](NC(C)=O)c1cc(Cl)ccc1C1CCN(C(=O)[C@H]2CN(C(C)(C)C)C[C@@H]2c2ccc3ccccc3c2)CC1 |  |  |  |  |  |  |  |  |  | 6.28 | 57 | 5.72 | 
CC[C@H](NC(C)=O)c1cc(Cl)ccc1C1CCN(C(=O)[C@@H]2CN(C(C)(C)C)C[C@H]2c2ccc(OC)cc2F)CC1 | 91 | 6.78 | 3.8 | 6.51 | 6.69 | 66.4 |  | 101 | 5.53 | 7.95 | 100 | 8.34 | pEC50 (Melanocortin receptor 3 [18]): 6.80
CC[C@H](NC(C)=O)c1cc(Cl)ccc1C1CCN(C(=O)[C@H]2CN(C(C)(C)C)C[C@@H]2c2ccc(Cl)cc2F)CC1 |  |  |  |  |  |  |  |  |  | 7.88 | 45 | 6.96 | 
CC[C@H](NC(C)=O)c1cc(Cl)ccc1C1CCN(C(=O)[C@H]2CN(C(C)(C)C)C[C@@H]2c2ccc(F)cc2F)CC1 |  |  |  |  |  |  |  |  |  | 6.19 | 83 | 6.25 | 
CC[C@H](NC(C)=O)c1cc(Cl)ccc1C1CCN(C(=O)[C@H]2CN(C(C)(C)C)C[C@@H]2c2cc(F)c(F)cc2F)CC1 |  |  |  |  |  |  |  |  |  | 7.00 | 50 | 5.43 | 
CC[C@H](NC(C)=O)c1cc(Cl)ccc1C1CCN(C(=O)[C@@H]2CN(C(C)(C)C)C[C@H]2c2ccc(C(F)(F)F)cc2)CC1 |  |  |  |  |  |  |  |  |  | 7.55 | 90 | 7.17 | 
CC[C@H](NC(C)=O)c1cc(Cl)ccc1C1CCN(C(=O)[C@H]2CN(C(C)(C)C)C[C@@H]2c2ccc(F)cc2Cl)CC1 |  |  |  |  |  |  |  |  |  | 7.09 |  |  | Activity (Melanocortin receptor 4 [13]): 10%
CC[C@H](NC(C)=O)c1cc(Cl)ccc1C1CCN(C(=O)[C@@H]2CN(C(C)(C)C)C[C@H]2c2cc(F)c(F)cc2F)CC1 |  |  |  |  |  |  |  |  |  | 6.89 | 93 | 6.89 | 
CC[C@H](NC(C)=O)c1cc(Cl)ccc1C1CCN(C(=O)[C@@H]2CN(C(C)(C)C)C[C@H]2c2ccc(C(F)(F)F)cc2F)CC1 |  |  |  |  |  |  |  |  |  | 7.64 | 99 | 7.05 | 
CC[C@H](NC(C)=O)c1cc(Cl)ccc1C1CCN(C(=O)[C@H]2CN(C(C)(C)C)C[C@@H]2c2ccc(C(F)(F)F)cc2)CC1 | 8 |  | 28 | 4.79 | 6.35 | 5.6 | 5 | 11 | 5.42 | 8.11 |  |  | Activity [2]: 15%; pIC50 (Melanocortin receptor 4 [6]): 9.00; Activity (Melanocortin receptor 4 [13]): 1%
CC[C@H](NC(C)=O)c1cc(Cl)ccc1C1CCN(C(=O)[C@@H]2CN(C(C)(C)C)C[C@H]2c2ccc(F)cc2Cl)CC1 |  |  |  |  |  |  |  |  |  | 6.67 | 84 | 6.67 | 
CC[C@H](NC(C)=O)c1cc(Cl)ccc1C1CCN(C(=O)[C@H]2CN(C(C)(C)C)C[C@@H]2c2ccc(Br)cc2F)CC1 | 38 | 6.34 | 34.3 | 3.76 | 6.55 | 9.12 | 33 | 30 | 5.53 | 8.39 | 33 | 7.87 | Activity [2]: 44%; pEC50 (Melanocortin receptor 4 [19]): 7.99; pEC50 (Melanocortin receptor 3 [18]): 6.04; pIC50 (Melanocortin receptor 4 [6]): 8.82; pEC50 [20]: 5.97
CC[C@H](NC(C)=O)c1cc(Cl)ccc1C1CCN(C(=O)[C@@H]2CN(C(C)(C)C)C[C@H]2c2ccc3ccccc3c2)CC1 | 16 | 5.91 | 15 | 5.18 | 6.17 | 37.6 | 10 | 35 | 4.91 | 7.12 | 47 | 6.92 | 
CC[C@H](NC(C)=O)c1cc(Cl)ccc1C1CCN(C(=O)[C@@H]2CN(C(C)(C)C)C[C@H]2c2ccc(Cl)cc2F)CC1 | 92 | 6.43 | 24.3 | 5.87 | 6.89 | 11.4 | 57 | 98 | 5.83 | 8.21 | 97 | 8.55 | Activity [2]: 106%; pEC50 (Melanocortin receptor 4 [19]): 9.05; pEC50 (Melanocortin receptor 3 [18]): 6.60; pEC50 [20]: 6.04
CC[C@H](NC(C)=O)c1cc(Cl)ccc1C1CCN(C(=O)[C@@H]2CN(C(C)(C)C)C[C@H]2c2ccc(F)cc2F)CC1 |  |  |  |  |  |  |  |  |  | 7.15 | 108 | 7.75 | 
CC[C@H](NC(C)=O)c1cc(Cl)ccc1C1CCN(C(=O)[C@@H]2CN(C(C)(C)C)C[C@H]2c2ccc(Cl)cc2Cl)CC1 |  |  |  |  |  |  |  |  |  | 7.75 | 48 | 6.81 | 
CC[C@H](NC(C)=O)c1cc(Cl)ccc1C1CCN(C(=O)[C@H]2CN(C(C)(C)C)C[C@@H]2c2ccc(C(F)(F)F)cc2F)CC1 |  |  |  |  |  |  |  |  |  | 8.01 |  |  | Activity (Melanocortin receptor 4 [13]): 5%
CC[C@H](NC(C)=O)c1cc(Cl)ccc1C1CCN(C(=O)[C@@H]2CN(C(C)(C)C)C[C@H]2c2ccc(Br)cc2F)CC1 | 88 | 6.99 | 24.7 | 6.16 | 7.19 | 7.3 | 57 | 88 | 5.98 | 8.40 | 100 | 8.68 | Activity [2]: 94%; pEC50 (Melanocortin receptor 4 [19]): 9.30; pEC50 (Melanocortin receptor 3 [18]): 7.01; pIC50 (Melanocortin receptor 4 [6]): 8.77; pEC50 [20]: 6.56
